Data taken from patent publication US12285437B2 (The Research Foundation for The State University of new York, priority 2019, dated 2025).
Where two headings read alike, the source gives them in different places.

Key:
[1] = HPLC assay of Dox release from DMA prodrugs 2/4/6 at different pH values; assay type: physicochemical; settings: 37° C., pH 7.4, 10 h
Experimental: The pH-dependence of drug release from Dox-DMA prodrugs as followed in HPLC assays. To test the pH-sensitivity of drug release, solutions of a DMA prodrug were adjusted to have pH values between 6.0 and 7.4. […] The HPLC rans were carried out with pH 8 solvents so that the DMA prodrug would not decompose during the HPLC analysis. Areas under the peaks were integrated to give the percentages.
The pH of the DMA prodrug solution was adjusted to different pH values in the range of pH 7.4-6.0. […] Representative HPLC traces are shown in ESI FIGS. S24-S29 (see these figures and their captions for more detailed information).

ES2 cells = test: Imaging studies (confocal microscopy); assay type: cell-based, human
Experimental: Afterwards, the treatment solution was removed; the nuclei of the cells were labeled with staining dye Hoechst 33342; and then images were taken on a scanning confocal microscope.
Imaging studies (confocal microscopy). Approximately 8,000 ES2 cells were seeded on a colIagen-coated glass dish (MatTek Corporation, part No. P35GCOL-0-10-C) and cultured in McCoy's 5A medium with 10% fetal bovine serum and 1% penicillin-streptomycin at 37° C. in the incubator (5% CO2) overnight. […] After treatment solution was removed, the cells were washed 1× with 100 μL of DMEM/F12 pH-specific media. Prior to fluorescence imaging, the nuclei of cells were stained with 1 μg/mL Hoechst 33342 in PBS for 20 min at 37° C. in the incubator. Afterwards, cells stayed in pH-specific DMEM/F12 media during imaging. […] The images in FIGS. 33-36 were processed using LAS X and ImageJ.

[2] = system: ES-2 human ovarian cancer cells; test: pH-dependent anti-proliferation assay (MTS; alamar Blue for FIG. 7I); settings: for Cell Viability Average (Avg): FIG. 7A, ES-2, 6 hr
Source text: pH-dependent anti-proliferation assays with cells.
NaOH to adjust the pH to 9.9.

[3] = system: PC-3 human prostate cancer cells; settings: FIG. 9B, PC3, […], 10 μM
Experimental: (§1) pH-dependent anti-proliferation assays with cells. In 96-well plates, ˜3,000 cells were seeded per well then grown for 24-48 hr until 30-40% confluency. […] For serum effect cell plate data shown in FIG. 5I, cell viability was measured using alamar Blue assay (i.e., growth media was replaced with 45 μL of pH 7.4 DMEM/F-12 media without phenol red, 5 μL of alamar Blue reagent (10×) was added; fluorescence at 590 nm was recorded after excitation at 560 nm at 1 hr afterwards).
(§2) The reaction solution was allowed to stand at rt for 1 hr in the dark, during which the pH decreased to ˜9.6. After 1 hr, the reaction solution was split into two 50-μL portions (for pH 7.4 vs. pH 6.2-6.8 cell experiments). The pH of one portion was adjusted to pH 8 (for pH 7.4 cell experiments) or pH 7 (for pH 6.2-6.8 cell experiments). Subsequently, the solution was diluted 30-fold (to 10 μM) with pH 7.4 or pH 6.2-6.8 cell media (final volume 1.5 mL) and then filtered (0.2 micron) before used in cell experiments.

[4] = system: SKOV3 human ovarian cancer cells; settings: FIG. 9A, 10 μM
Experimental: as §1, §2

ES2 ovarian cancer cells = test: Antiproliferation assays against ES2 cancer cells at different pH values; assay type: cell-based, human
Experimental: For cell experiments, a pH 8 or pH 10 (directly from DMI to DMA conversion) solution of DMA 2/4/6 was sterilized by filtering through a 0.2-micron membrane. […] At this point, small amounts of 10 (or 25) mM of sterile aq.
Antiproliferation assays against ES2 cancer cells at different pH values. […] Treatment solution volume was 50-100 μL per well, with a set volume per well for all wells in a plate.

[5] = system: MDA-MB-231 human breast cancer cells
Experimental: as §1, §2

[6] = system: NIH:OVCAR3 human ovarian cancer cells
Experimental: as §1, §2

COc1cccc2c1C(=O)c1c(O)c3c(c(O)c1C2=O)C[C@@](O)(C(=O)CO)C[C@@H]3O[C@H]1C[C@H](N2C(=O)C(C)=C(CCC(=O)O)C2=O)[C@H](O)[C@H](C)O1 [Dox-DMI 1]
DMI formed [1]: about 13% | Dox channel signal among the DMI byproducts (ES2 cells; ES2, 8 μM, 1 h): more signals | Dox fluorescence signals in cells, pH 6.7 vs. 7.7 (ES2 cells; ES2, 1 h, 4 μM Dox or 8 μM prodrug/DMI): higher at pH 6.7 than 7.7

COc1cccc2c1C(=O)c1c(O)c3c(c(O)c1C2=O)C[C@@](O)(C(=O)CO)C[C@@H]3O[C@H]1C[C@H](N2C(=O)C(C)=C(CCC(=O)NCCSSC[C@H](N)C(=O)O)C2=O)[C@H](O)[C@H](C)O1 [Dox-DMI-Cys 5]
DMI formed [1]: 26%

COc1cccc2c1C(=O)c1c(O)c3c(c(O)c1C2=O)C[C@@](O)(C(=O)CO)C[C@@H]3O[C@H]1C[C@H](N2C(=O)C(C)=C(CCC(=O)NCCSSC[C@H](NC(=O)CC[C@H](N)C(=O)O)C(=O)NCC(=O)O)C2=O)[C@H](O)[C@H](C)O1 [Dox-DMI-GSH 7, Doxorubicin Disubstituted Maleimide Glutathione Conjugate]
toxicity compared to DMA 8 ([2]; ES-2, 6 h (FIG. 7A)): much less toxicity | Cell Viability Average (Avg) ([2]; 0.5 μM, pH 6.6-6.8): 90% | Cell Viability Average (Avg) ([2]; 0.5 μM, pH 7.2-7.5): 97% | Cell Viability Average (Avg) ([2]; 1 μM, pH 6.6-6.8): 79% | Cell Viability Average (Avg) ([2]; 1 μM, pH 7.2-7.5): 80% | Cell Viability Avg ([3]; pH 6.3-6.4): 90% | Cell Viability Avg ([3]; pH 7.5-7.6): 84% | Cell Viability Avg ([4]; pH 6.3-6.5): 75% | Cell Viability Avg ([4]; pH 7.5-7.6): 63%

COc1cccc2c1C(=O)c1c(O)c3c(c(O)c1C2=O)C[C@@](O)(C(=O)CO)C[C@@H]3O[C@H]1C[C@H](N2C(=O)C(C)=C(CCC(=O)N[C@@H](CCC(=O)O)C(=O)O)C2=O)[C@H](O)[C@H](C)O1 [Dox-DMI-Glu 3]
DMI formed [1]: 26%

CC1=C(CCC(=O)O)C(=O)OC1=O [anhydride 7, 2-propionic-3-methylmaleic anhydride]
cytotoxicity of anhydride byproduct of drug release (ES2 ovarian cancer cells; FIG. 29D, ES2, 2, 20 or 200 μM, pH 6.7-6.8 or 7.5-7.6, 2 h): harmless to cells | cytotoxicity of anhydride byproduct of drug release (ES2 ovarian cancer cells; FIG. 29D, ES2, 2, 20 or 200 μM, pH 6.7-6.8 or 7.5-7.6, 2 h, listed as anhydride byproduct 7): not cytotoxic

CC1=C(CCC(=O)N[C@@H](CCC(=O)O)C(=O)O)C(=O)OC1=O [byproduct 10, (3-(4-methyl-2,5-dioxo-2,5-dihydrofuran-3-yl)propanoyl)glutamic acid]
cytotoxicity of anhydride byproduct of drug release (ES2 ovarian cancer cells; FIG. 30D, ES2, 3, 30 or 300 μM, pH 6.5-6.6 or 7.4-7.5, 3 h): not cytotoxic

CC1=C(CCC(=O)NCCSSC[C@H](N)C(=O)O)C(=O)OC1=O [byproduct 12]
cytotoxicity of anhydride byproduct of drug release (ES2 ovarian cancer cells; FIG. 31D, ES2, 2, 20 or 200 μM, pH 6.7 or 7.4-7.5, 2 h): did not show any cytotoxicity | cytotoxicity of anhydride byproduct of drug release (ES2 ovarian cancer cells; FIG. 31D, ES2, 2, 20 or 200 μM, pH 6.7 or 7.4-7.5, 2 h, listed as anhydride 12): no cytotoxic effect | cytotoxicity of anhydride byproduct of drug release (ES2 ovarian cancer cells; FIG. 31D, ES2, 2, 20 or 200 μM, pH 6.7 or 7.4-7.5, 2 h, listed as anhydride byproduct 12): not cytotoxic

Doxorubicin Disubstituted Maleamic Acid Glutathione Conjugate [Dox-DMA-GSH 8]
fold more potent at pHe 6.7 (than at pHe 7.4) ([2]; ES-2, 6 h): ~2 fold | potency of 1 mM of prodrug compared to 0.5 mM of free Dox ([2]; ES-2, 6 h, pHe 6.7): more potent | pHe at which the maximum effect was reached ([2]; ES-2, pHe titration (FIG. 7E)): 6.8 | higher potency than the free drug (3 μM) ([5]; MDA-MB231, 2-3 h, 6-8 μM prodrug, pHe 6.3-6.4): 2-3 × | pHe at which maximum effects were seen ([5]; MDA-MB231, pHe titration (FIG. 7F)): 6.5 | higher potency than the free drug (3 μM) ([6]; OVCAR3, 2-3 h, 6-8 μM prodrug, pHe 6.3-6.4): 2-3 × | pHe at which maximum effects were seen ([6]; OVCAR3, pHe titration (FIG. 7G)): 6.5
